According to article PMC12434536, “Radiosynthesis and Preclinical Evaluation of a Carbon-11 Labeled Phosphodiesterase 7 Inhibitor for PET Neuroimaging” (ACS Medicinal Chemistry Letters, 2025):

Target: T1, PDE7A (Homo sapiens, UniProt Q13946)
T1 construct: purchased Eurofins Panlabs Discovery Services (contract assay)
Assay: In vitro inhibitory assay of PDE7A activity
Assay type: biochemical
Conditions: human recombinant enzyme; read-out: inhibitory constant (IC50) toward PDE7A
Description: protein-ligand complex were saved and were then loaded into Schrödinger Maestro to generate the ligand interaction plot.
In vitro inhibitory assay to PDE7 of compound 27 and selectivity to other PDEs Functional activity of target compound 27 for inhibition of PDE7A activity and the selectivity over other PDE isozymes (PDE1A/B/C, 2A, 3A/B, 4A/B/C/D, 5A, 8A, 9A, and 10A) were evaluated by Eurofins Panlabs Discovery Services and Reaction Biology Corp., respectively. Human recombinant enzymes were used for the assays. The inhibitory assays were performed and calculated in duplicate at 3 µM. If the inhibition percentage was less than 50%, the assay for half-maximal inhibitory concentration (IC50) value was conducted in […]
CYP450 isoform metabolism and in vitro safety profiling
The inhibitory constant of compound 26 toward cytochrome P450-dependent metabolic pathways was determined for individual CYP isoform (CYP1A2, CYP2C9, CYP2C19, CYP2D6, and CYP3A4). Reference inhibitors were included as positive controls. A 10 µM solution of compound 27 was used for initial screening. If the inhibition percentage was less than 50%, the experiment was stopped. If the inhibition potency was greater than 50%, the gradient concentrations of compound 27 were used for IC 50 determination. The P450 reactions were detected at Ext/Em: 405 nm/460 nm (530 nm/605 nm for CYP2C9) in a […]

T1 sequence (Q13946 whole entry): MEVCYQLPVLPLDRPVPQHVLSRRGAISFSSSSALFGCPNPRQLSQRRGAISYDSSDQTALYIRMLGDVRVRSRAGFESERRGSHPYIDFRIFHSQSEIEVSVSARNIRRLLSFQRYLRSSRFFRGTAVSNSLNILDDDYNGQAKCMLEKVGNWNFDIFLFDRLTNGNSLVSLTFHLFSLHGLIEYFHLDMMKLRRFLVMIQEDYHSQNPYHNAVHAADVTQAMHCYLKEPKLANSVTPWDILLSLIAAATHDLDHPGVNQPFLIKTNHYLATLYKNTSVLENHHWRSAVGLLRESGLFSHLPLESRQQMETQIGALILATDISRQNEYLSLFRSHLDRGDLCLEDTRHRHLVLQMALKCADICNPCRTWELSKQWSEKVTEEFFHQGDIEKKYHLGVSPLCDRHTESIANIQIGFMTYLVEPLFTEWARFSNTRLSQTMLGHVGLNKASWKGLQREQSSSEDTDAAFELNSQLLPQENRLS

COc1ccc(Cl)c2c1C1(CCCCC1)NC(=O)N2 [Compound 27]
IC50: 31 nM
